Measured values reported in paper PMC8191290, “Substrate specificities and reaction kinetics of the yeast oligosaccharyltransferase isoforms” (The Journal of Biological Chemistry, 2021).

Biological target: T1, OST3 complex (Saccharomyces cerevisiae, UniProt P39007)
T1 construct: were purified separately from strains expressing only one type of complex; made in house; host or cells: Saccharomyces cerevisiae, BY4742-derived strain ost6::LEU2MX6 OST4-1D4::kanMX6 YEp352-OST3
Test: In vitro glycosylation assay, kinetic parameters for synthetic LLOs, OST3 complex
Assay type: biochemical
Source text: Synthetic LLO substrates all have two GlcNAcs as the sugar moiety, followed by pyrophosphate and lipid moieties (−R) of variable stereochemistry and length, denoted by the carbon chain length. C10, (S)-citronellyl; C15, farnesyl; C20, (S)-citronellylneryl; C25, (S)-citronellylfarnesyl; C90, represents the natural yeast dolichol lipid tail structure where n = 15. Figure modified from Ramirez et al. 2017 ([42]). B, quantification of kinetic parameters for the synthetic LLOs. Reactions were performed with 0.1 μM purified OST3 complex, 25 μM peptide TAMRA-YANATS, and varying concentrations of the different synthetic LLOs. Glycopeptide product was measured by UPLC and turnover rates were determined from the linear initial phase of the reaction. The mean of three reactions is shown and the data were fitted by nonlinear regression according to the Michaelis–Menten formula (R^2 = 0.9842 (LLO C15), 0.9685 (LLO C20), 0.9261 (LLO C25)) using Prism. Error bars indicate standard deviations from the mean (n = 3).
Concentrations of reactive LLO analogs were determined by in vitro glycosylation (see below) by titrating varying amounts of LLO against a known amount of fluorescently labeled peptide. Concentrations of nonreactive LLO analogs were determined by in vitro glycosylation by titrating varying amounts of nonreactive LLO while using known amounts of both fluorescently labeled peptide and active LLO analog.
Reactions were performed in a total volume of 10 μl containing the specified amount of TAMRA-labeled peptide, synthetic LLO analog, 10 mM MnCl2, and purified OST after size-exclusion chromatography in purification buffer (50 mM Hepes, pH 7.5, 150 mM NaCl, 1 mM MgCl2, 1 mM MnCl2, 10% (v/v) glycerol, 0.03% (w/v) DDM, and 0.006% (w/v) CHS). The concentration of OST was calculated using the molecular weight of 280 kDa. The reaction mixture was preincubated at 30 °C for 5 min before adding the peptide to start the reaction that proceeded at 30 °C. Time points were taken such that the reaction was in the linear phase. […]
Samples were analyzed by reverse-phase chromatography using a UPLC Dionex UltiMate 3000 with an Accucore 150-C18 100 × 2.1 mm 2.6 μm column (Thermo Fisher Scientific). One microliter sample (2 pmol of peptide) was injected and measured by isocratic elution using a certain proportion of ACN (15% ACN for peptide TAMRA-DANYTK; 20% ACN for peptide TAMRA-YANATS) in 10 mM KPO4, pH 8.0 buffer so that the glycopeptide and peptide are fully separated and elute within 3 min at a constant flow rate of 0.7 ml/min, with a column temperature of 45 °C. The peptide and glycopeptide were detected through TAMRA fluorescence (excitation wavelength: 546 nm; emission wavelength: 579 nm).
The UPLC profiles were analyzed by integrating the peaks corresponding to the glycopeptide and peptide using Chromeleon 7 (Dionex) and calculating the amount of glycopeptide formed using the following equation, as previously described ([43]): [GP]=PeakareaGP/PeakareaP+PeakareaGP×[P]
[GP] is the concentration of glycopeptide, Peak areaGP/P is the area under the curves measured for the glycopeptide or peptide, respectively, and [P] is the concentration of peptide at the start of the reaction. […] Unless specified otherwise, turnover rates were determined from the initial rates of reaction by taking into account the enzyme concentration in the reaction. […]

CC(=O)N[C@H]1[C@@H](OP(=O)(O)OP(=O)(O)OC/C=C(\C)CC/C=C(\C)CCC=C(C)C)O[C@H](CO)[C@@H](O[C@@H]2O[C@H](CO)[C@@H](O)[C@H](O)[C@H]2NC(C)=O)[C@@H]1O [LLO C15]
kcat/KM (0.1 μM purified OST3 complex, 25 μM TAMRA-YANATS): 0.02 min^-1 μM^−s1
kcat (apparent) (0.1 μM purified OST3 complex, 25 μM TAMRA-YANATS, varying LLO (C15 5–200, C20 5–150, C25 2–50 μM), 30 °C, n = 3): 0.0283 ± 0.0017 s⁻¹
Km (0.1 μM purified OST3 complex, 25 μM TAMRA-YANATS, varying LLO (C15 5–200, C20 5–150, C25 2–50 μM), 30 °C, n = 3, read-out: KM (apparent)): 67.9 ± 6.7 µM
apparent LLO affinity, in words (OST3 complex, from apparent KM): bound much less efficiently
